Experimental findings from ChEMBL document CHEMBL6177986, “A Perspective on the Strategic Application of Deconstruction-Reconstruction in Drug Discovery” (J Med Chem, 2025) are described below.

Assay [1] concerns the target T1, Phosphatidylinositol 4,5-bisphosphate 3-kinase catalytic subunit delta isoform (Homo sapiens, UniProt O00329).
T1 sequence (O00329 whole entry): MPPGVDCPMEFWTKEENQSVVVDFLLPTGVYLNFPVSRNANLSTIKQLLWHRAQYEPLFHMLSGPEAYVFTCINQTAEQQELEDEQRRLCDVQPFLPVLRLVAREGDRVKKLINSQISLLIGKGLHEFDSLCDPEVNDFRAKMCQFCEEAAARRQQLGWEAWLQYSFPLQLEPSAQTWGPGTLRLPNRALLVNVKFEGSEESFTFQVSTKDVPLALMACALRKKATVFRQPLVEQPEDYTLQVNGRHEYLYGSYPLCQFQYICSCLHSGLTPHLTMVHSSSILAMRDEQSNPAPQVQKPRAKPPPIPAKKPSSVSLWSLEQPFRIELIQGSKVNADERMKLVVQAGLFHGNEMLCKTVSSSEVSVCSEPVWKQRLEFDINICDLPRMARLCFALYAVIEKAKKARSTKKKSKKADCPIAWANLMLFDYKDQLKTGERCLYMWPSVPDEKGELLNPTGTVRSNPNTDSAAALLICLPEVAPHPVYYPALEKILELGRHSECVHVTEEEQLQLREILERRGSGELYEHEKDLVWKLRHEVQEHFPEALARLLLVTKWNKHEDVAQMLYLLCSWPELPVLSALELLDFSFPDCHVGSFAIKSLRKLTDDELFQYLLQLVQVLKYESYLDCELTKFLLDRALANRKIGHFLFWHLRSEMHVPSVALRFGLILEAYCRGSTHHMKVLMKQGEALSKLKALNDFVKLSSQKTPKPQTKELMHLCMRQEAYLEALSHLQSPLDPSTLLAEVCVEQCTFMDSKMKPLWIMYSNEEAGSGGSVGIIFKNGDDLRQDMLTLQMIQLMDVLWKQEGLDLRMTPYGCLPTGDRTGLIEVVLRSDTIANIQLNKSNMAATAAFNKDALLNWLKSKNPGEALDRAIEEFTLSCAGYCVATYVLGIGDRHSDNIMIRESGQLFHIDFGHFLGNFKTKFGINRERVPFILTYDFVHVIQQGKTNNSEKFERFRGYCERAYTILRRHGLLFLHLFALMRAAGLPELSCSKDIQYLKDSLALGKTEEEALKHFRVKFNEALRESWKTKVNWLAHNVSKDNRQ
Put plainly: Inhibition of PI3Kdelta (unknown origin).

For assay [2], the target named is Phosphatidylinositol 4,5-bisphosphate 3-kinase catalytic subunit gamma isoform (Homo sapiens, UniProt P48736). Put plainly: Inhibition of PI3Kgamma (unknown origin).
Phosphatidylinositol 4,5-bisphosphate 3-kinase catalytic subunit gamma isoform, sequence (P48736 whole entry, canonical isoform): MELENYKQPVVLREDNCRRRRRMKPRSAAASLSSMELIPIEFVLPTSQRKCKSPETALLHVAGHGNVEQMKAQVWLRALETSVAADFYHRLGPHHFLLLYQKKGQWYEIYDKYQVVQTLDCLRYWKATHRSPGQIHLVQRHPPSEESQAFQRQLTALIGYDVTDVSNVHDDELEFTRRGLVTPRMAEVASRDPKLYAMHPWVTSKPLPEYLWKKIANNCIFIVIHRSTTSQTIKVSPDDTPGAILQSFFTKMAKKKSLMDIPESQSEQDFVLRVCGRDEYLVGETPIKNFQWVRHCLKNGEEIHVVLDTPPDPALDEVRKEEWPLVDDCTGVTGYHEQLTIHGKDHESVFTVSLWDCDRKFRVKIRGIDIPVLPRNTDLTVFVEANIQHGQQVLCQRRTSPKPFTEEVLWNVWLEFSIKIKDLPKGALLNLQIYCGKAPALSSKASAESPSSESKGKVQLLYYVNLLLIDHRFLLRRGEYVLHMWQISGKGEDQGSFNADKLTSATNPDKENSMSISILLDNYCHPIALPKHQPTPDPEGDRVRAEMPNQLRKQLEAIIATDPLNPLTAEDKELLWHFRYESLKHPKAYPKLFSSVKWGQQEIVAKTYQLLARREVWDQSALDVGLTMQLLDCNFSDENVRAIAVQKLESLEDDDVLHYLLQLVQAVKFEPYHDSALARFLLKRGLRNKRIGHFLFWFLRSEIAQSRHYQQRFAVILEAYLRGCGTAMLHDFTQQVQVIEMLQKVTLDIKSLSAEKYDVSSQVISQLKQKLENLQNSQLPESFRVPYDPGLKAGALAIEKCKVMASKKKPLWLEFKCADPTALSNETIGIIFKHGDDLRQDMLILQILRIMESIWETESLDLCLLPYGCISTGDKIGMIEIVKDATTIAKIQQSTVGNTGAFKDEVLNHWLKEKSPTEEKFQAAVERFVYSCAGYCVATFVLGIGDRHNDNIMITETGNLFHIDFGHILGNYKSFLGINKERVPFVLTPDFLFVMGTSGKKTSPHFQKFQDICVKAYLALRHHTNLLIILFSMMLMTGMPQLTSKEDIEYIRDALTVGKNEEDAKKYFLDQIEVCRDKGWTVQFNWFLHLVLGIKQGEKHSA
Assay [3] has as its target Phosphatidylinositol 4,5-bisphosphate 3-kinase catalytic subunit beta isoform (Homo sapiens, UniProt P42338). The assay can be described thus: Inhibition of PI3Kbeta (unknown origin).
Assay [4] addresses Phosphatidylinositol 4,5-bisphosphate 3-kinase catalytic subunit alpha isoform (Homo sapiens, UniProt P42336). The assay can be described thus: Inhibition of PI3Kalpha (unknown origin).

Phosphatidylinositol 4,5-bisphosphate 3-kinase catalytic subunit alpha isoform, sequence (P42336 whole entry, canonical isoform): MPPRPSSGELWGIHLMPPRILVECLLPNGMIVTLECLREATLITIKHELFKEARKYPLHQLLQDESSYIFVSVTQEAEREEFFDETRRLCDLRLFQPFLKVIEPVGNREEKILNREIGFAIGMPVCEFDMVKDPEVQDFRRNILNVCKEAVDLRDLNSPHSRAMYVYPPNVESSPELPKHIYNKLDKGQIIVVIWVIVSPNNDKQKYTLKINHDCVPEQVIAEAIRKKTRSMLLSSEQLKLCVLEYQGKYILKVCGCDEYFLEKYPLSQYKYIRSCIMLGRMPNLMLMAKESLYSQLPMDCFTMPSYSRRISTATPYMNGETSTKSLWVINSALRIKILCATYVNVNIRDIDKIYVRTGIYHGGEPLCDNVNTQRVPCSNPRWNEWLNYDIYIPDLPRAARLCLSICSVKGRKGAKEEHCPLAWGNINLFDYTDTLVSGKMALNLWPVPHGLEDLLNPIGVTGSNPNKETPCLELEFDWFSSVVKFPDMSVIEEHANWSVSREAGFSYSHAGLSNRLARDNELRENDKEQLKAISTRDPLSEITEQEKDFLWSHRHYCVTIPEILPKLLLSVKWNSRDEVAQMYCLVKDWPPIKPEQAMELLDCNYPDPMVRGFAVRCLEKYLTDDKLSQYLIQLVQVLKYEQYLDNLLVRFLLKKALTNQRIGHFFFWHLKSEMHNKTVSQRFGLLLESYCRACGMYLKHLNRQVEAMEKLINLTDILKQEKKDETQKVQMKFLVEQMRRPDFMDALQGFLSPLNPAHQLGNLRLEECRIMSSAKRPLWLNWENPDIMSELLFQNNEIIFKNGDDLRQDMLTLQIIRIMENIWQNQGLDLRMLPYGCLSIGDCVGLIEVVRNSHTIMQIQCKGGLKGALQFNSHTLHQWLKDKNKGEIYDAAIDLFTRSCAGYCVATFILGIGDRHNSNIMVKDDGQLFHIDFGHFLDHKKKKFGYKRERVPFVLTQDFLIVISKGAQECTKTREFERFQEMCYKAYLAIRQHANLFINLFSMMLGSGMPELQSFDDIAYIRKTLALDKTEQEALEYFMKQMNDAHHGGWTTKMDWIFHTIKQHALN
Phosphatidylinositol 4,5-bisphosphate 3-kinase catalytic subunit beta isoform, sequence (P42338 whole entry, canonical isoform): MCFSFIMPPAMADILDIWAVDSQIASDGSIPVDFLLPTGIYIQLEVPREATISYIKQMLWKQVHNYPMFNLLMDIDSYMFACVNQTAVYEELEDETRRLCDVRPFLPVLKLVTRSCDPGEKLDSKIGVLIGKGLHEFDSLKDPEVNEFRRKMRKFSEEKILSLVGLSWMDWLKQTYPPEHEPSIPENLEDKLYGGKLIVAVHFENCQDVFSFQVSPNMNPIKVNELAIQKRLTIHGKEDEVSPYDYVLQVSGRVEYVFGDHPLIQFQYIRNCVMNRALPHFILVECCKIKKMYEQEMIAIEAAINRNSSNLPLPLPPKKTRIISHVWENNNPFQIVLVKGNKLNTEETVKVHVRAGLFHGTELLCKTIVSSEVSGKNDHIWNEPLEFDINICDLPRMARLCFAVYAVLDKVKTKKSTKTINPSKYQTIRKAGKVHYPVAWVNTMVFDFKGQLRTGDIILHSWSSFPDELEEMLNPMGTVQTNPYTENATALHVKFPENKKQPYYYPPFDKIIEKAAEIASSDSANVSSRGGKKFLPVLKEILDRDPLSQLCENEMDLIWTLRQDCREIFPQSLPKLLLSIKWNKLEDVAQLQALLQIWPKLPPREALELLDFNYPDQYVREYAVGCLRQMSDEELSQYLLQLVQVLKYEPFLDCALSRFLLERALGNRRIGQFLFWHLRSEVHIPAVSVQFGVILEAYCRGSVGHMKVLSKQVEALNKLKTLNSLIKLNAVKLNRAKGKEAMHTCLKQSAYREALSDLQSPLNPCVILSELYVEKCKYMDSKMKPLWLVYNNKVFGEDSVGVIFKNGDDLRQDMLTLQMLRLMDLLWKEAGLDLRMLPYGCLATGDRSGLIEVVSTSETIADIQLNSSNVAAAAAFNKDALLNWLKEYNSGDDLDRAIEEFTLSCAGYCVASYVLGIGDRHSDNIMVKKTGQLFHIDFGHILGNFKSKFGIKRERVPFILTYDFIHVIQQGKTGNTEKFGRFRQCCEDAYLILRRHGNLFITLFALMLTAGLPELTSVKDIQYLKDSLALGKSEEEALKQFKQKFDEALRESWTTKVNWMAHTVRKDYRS

For the compound `COc1ncc(C2=CCOCC2)cc1NS(=O)(=O)c1cn(Cc2ccccc2)c(C)n1`, the IC50 in assay [1] turned out to be 0.006 µM.

Consider `COc1ncc(-c2ccc3ccncc3c2)cc1NS(C)(=O)=O`, for which the IC50 in assay [2] was found to be 0.79 µM; in assay [3] it was 2.5 µM; in assay [1], 0.16 µM; in assay [4] it was 2.5 µM.

`c1cc(-c2ccc3ccncc3c2)c2cc[nH]c2c1` yielded an IC50 in assay [4] of over 32 µM.

On to `c1cc(-c2ccncc2)c2cc[nH]c2c1`, for which the concentration for half-maximal inhibition (IC50) in assay [2], in assay [3] and in assay [4] was over 50 µM in each case.

For `COc1ncc(-c2ccncc2)cc1NS(C)(=O)=O`, the IC50 amounted to 2.5 µM in assay [2], 0.79 µM in assay [3], 0.25 µM in assay [1] and 6.3 µM in assay [4].
